{"source": "paper PMC10707934", "about": "“Design and Synthesis of Novel α-Methylchalcone Derivatives, Anti-Cervical Cancer Activity, and Reversal of Drug Resistance in HeLa/DDP Cells” (Molecules, 2023)", "type_in_all_cases": "cell-based, human", "key": {"Bcl-2 [1]": {"test_system": "Bcl-2", "test": "Western blot, Bcl-2 expression in HeLa/DDP cells", "conditions": "24 h, 2.5, 5, and 10 μM", "experimental": "(§1) HeLa cells were cultured in 60 mm Petri dishes at a density of 1.0 × 10^6 cells per dish and treated with 0.1% DMSO (vehicle), positive control chalcone (20 μM), and different concentrations of compound 3k (2.5, 5, and 10 μM), respectively. Following a 24 and 48 h incubation period, the cells were harvested via centrifugation and subsequently washed twice with PBS that had been chilled to 0 °C. Next, the cells were homogenized using RIPA lysis buffer (Solarbio, Beijing, China) and supplemented with 1% PMSF (MP Biomedicals, 0754-25G, CAS:329-98-6, Santa Ana, CA, USA) and 1% mixed phosphatase inhibitor (Solarbio, Beijing, China). […]\n(§2) Subsequently, the protein concentrations were determined utilizing a BCA Protein Assay Kit (Solarbio, China). An equivalent quantity of the proteins (12 μg) was fractionated via 8–12% sodium dodecyl sulfate–polyacrylamide gel electrophoresis (SDS-PAGE) and transferred onto nitrocellulose membranes (Amersham Biosciences, Amersham, UK). […] The blots were subsequently visualized using enhanced chemiluminescence (Biosharp, Shanghai, China) and detected utilizing a PE 0723 imager (ProteinSimple, Silicon Valley, CA, USA). Each experiment was conducted in triplicate at minimum and analyzed employing Image J software (V1.8.0.112). β-actin(ab198991) rabbit mAb, goat anti-rabbit IgG (H + L) HRP—#S0001 (Affinity). […]"}, "Bcl-2 [2]": {"test_system": "Bcl-2", "test": "Western blot, Bcl-2 expression in HeLa cells", "conditions": "24 h, 5 and 10 μM", "experimental": "as §1, §2"}, "HeLa cells": {"test_system": "HeLa cells", "test": "Transwell migration assay, HeLa", "conditions": "24 h, control 1176", "experimental": "HeLa (5 × 10^4 cells) was suspended in 200 μL of FBS-free medium. The top chamber contained the vehicle and various concentrations of compound 3k (2.5, 5, and 10 μM), cisplatin (20 μM) and chalcone (20 μM). The lower chamber was filled with 600 μL of medium containing 10% FBS. After incubating at 37 °C for 24 h, the cells on the top side of the Transwell membrane were removed with a cotton tip. Cells were fixed and stained with 4% paraformaldehyde (LEAGENE BIOTECHNOLOGY, Cat:DF0135, Lot:0823A23, Zhongguancun, Haidian District, Beijing, China) and 0.1% crystal violet solutions (Leagene Biotechnology, Cat:DZ0055, Lot:0508A23, Zhongguancun, Haidian District, Beijing, China) for 30 min to fix cells trapped on the perforated side of the membrane."}, "[3]": {"test_system": "α-/β-tubulins in HeLa cells", "test": "Western blot of polymerized and dissociated α-/β-tubulins, HeLa", "conditions": "24 h, versus control", "experimental": "(§3) HeLa cells were cultured in 60 mm Petri dishes at a density of 1.0 × 10^6 cells per dish and treated with 0.1% DMSO (vehicle), positive control chalcone (20 μM), and different concentrations of compound 3k (2.5, 5, and 10 μM), respectively. Following a 24 and 48 h incubation period, the cells were harvested via centrifugation and subsequently washed twice with PBS that had been chilled to 0 °C. Next, the cells were homogenized using RIPA lysis buffer (Solarbio, Beijing, China) and supplemented with 1% PMSF (MP Biomedicals, 0754-25G, CAS:329-98-6, Santa Ana, CA, USA) and 1% mixed phosphatase inhibitor (Solarbio, Beijing, China). The resulting lysates were then incubated on ice for 30 min, intermittently vortexed every 5 min, and subsequently centrifuged at 12,000 rpm for 20 min to collect the supernatants.\n(§4) Subsequently, the protein concentrations were determined utilizing a BCA Protein Assay Kit (Solarbio, China). An equivalent quantity of the proteins (12 μg) was fractionated via 8–12% sodium dodecyl sulfate–polyacrylamide gel electrophoresis (SDS-PAGE) and transferred onto nitrocellulose membranes (Amersham Biosciences, Amersham, UK). Following this, the membranes were obstructed with 5% nonfat dried milk in TBS containing 1% Tween-20 for a duration of 2 h at ambient temperature and were subjected to overnight incubation with specific primary antibodies (CST, Boston, MA, USA) at 4 °C. Following three washes in TBST, the membranes were subjected to incubation with the suitable HRP-conjugated secondary antibodies at ambient temperature for a duration of 2 h. The blots were subsequently visualized using enhanced chemiluminescence (Biosharp, Shanghai, China) and detected utilizing a PE 0723 imager (ProteinSimple, Silicon Valley, CA, USA). Each experiment was conducted in triplicate at minimum and analyzed employing Image J software (V1.8.0.112). β-actin(ab198991) rabbit mAb, goat anti-rabbit IgG (H + L) HRP—#S0001 (Affinity). Bax (ab289364), Bcl-2 (ab218123), MDR1/ABCB1 (E1Y7B) rabbit mAb #13342 (CST).\n(§5) Polymerized and free microtubule proteins were extracted using the methods described in references, respectively. Following drug intervention, the cells were subjected to two washes with preheated microtubule protein buffer MTSB at 37 °C. Subsequently, 70 μL of MTSB was added, and the cells were lysed for 10 min at 37 °C in a constant temperature chamber shielded from light. The cells were then scraped with a spatula and centrifuged at 14,000 r/min for 10 min at room temperature. The resulting supernatant, which represented the free state microtubule protein suspension, was subsequently removed. The remaining precipitate was treated with RIPA lysis solution, followed by lysis on ice for a duration of 30 min. Subsequently, centrifugation was performed at a temperature of 4 °C and a speed of 12,000 revolutions per minute for a duration of 20 min. The resulting supernatant was collected as a suspension of polymerized microtubule protein. The Western blotting procedure was the same as in Section 3.3.4. α-Tubulin (DM1A) Mouse mAb#3873 (CST), β-Tubulin (D2N5G) Rabbit mAb #15115 (CST), CoraLite488-conjugated Goat Anti-Mouse lgG(H+L) (Proteintech); CoraLite488-conjugated Goat Anti-Rabbit lgG(H+L) (Proteintech); β-actin(ab198991) rabbit mAb, Goat Anti-Mouse IgG H&L (HRP) (ab6789); Goat anti-Rabbit IgG (H+L) HRP—#S0001 (Affinity)."}, "[4]": {"test_system": "α-/β-tubulins in HeLa/DDP cells", "test": "Western blot of polymerized and dissociated α-/β-tubulins, HeLa/DDP", "conditions": "versus control", "experimental": "as §3, §4, §5"}, "[5]": {"test_system": "α-tubulin, β-tubulin in HeLa cells", "test": "Immunofluorescence assay of microtubules, HeLa", "conditions": "24 h, 3k 1, 2, and 4 μM, colchicine and paclitaxel 2.0 μM", "experimental": "The cells were then fixed by adding 400 μL of 4% paraformaldehyde to each well and incubating for 30 min. 0.1% Triton was added at a volume of 400 μL per well and allowed to incubate for 10 min. Following this, goat serum (10%) was added at 400 μL per well and incubated for 40 min. Primary antibodies (α-tubulin, β-tubulin) were then incubated overnight at a temperature of 4 °C. Subsequently, secondary antibodies (α-mouse, β-rabbit) were incubated for 1.5 h. DAPI staining was performed at 400 μL per well for 5 min, followed by a wash with PBS. Cell climbing tablets were removed and inverted onto slides with sealer. Photographs were captured using a fluorescent inverted microscope."}, "Bax": {"test_system": "Bax", "test": "Western blot, Bax expression in HeLa cells", "conditions": "24 h, 2.5, 5, and 10 μM", "experimental": "as §1, §2"}}, "data": [{"smiles": "COc1ccc(/C=C(\\C)C(=O)c2ccc(Cl)c(Cl)c2)cc1OC", "note": "[Compound 3k, (E)-1-(3,4-Dichlorophenyl)-3-(3,4-dimethoxyphenyl)-2-methylprop-2-en-1-one]", "values": [{"measurement": "Bcl-2 expression versus control group", "setting": "Bcl-2 [1]", "result": "significantly downregulate"}, {"measurement": "Bcl-2 expression versus control group", "setting": "Bcl-2 [2]", "result": "downregulation"}, {"measurement": "number of migrated cells", "setting": "HeLa cells; 2.5 μM", "result": 518}, {"measurement": "number of migrated cells", "setting": "HeLa cells; 5 μM", "result": 388}, {"measurement": "number of migrated cells", "setting": "HeLa cells; 10 μM", "result": 166}, {"measurement": "expression of dissociated state α and β microtubule proteins", "setting": "[3]; 3k 4 μM, colchicine 2 μM, paclitaxel 2.0 μM", "result": "significant increase"}, {"measurement": "expression of α and β microtubule proteins in the polymerized state", "setting": "[3]; 3k 2 and 4 μM, colchicine and paclitaxel 2.0 μM", "result": "significant decrease"}, {"measurement": "expression of polymerized β microtubulin", "setting": "[4]; 24 h, 1, 2, and 4 μM", "result": "significant reduction"}, {"measurement": "expression of polymerized α-microtubulin", "setting": "[4]; 24 h, 2 and 4 μM", "result": "significant decrease"}, {"measurement": "expression of dissociated state α and β microtubule proteins", "setting": "[4]; 24 h, 3k 4 μM, colchicine and paclitaxel 2.0 μM", "result": "significant increase"}, {"measurement": "microtubule immunofluorescence (α green, β red)", "setting": "[5]", "result": "green and red fluorescence of the encapsulated cells weakened"}, {"measurement": "Bax expression versus control group", "setting": "Bax", "result": "significant upregulation"}]}]}
